The NIST ThermoML archive (doi:10.1016/j.tca.2017.12.013)

Assay: molar heat capacity at constant pressure
Conditions: 101.33 kPa, DSC

[Ag+].[Ag+].[S-2] [silver sulfide]
Conditions	molar heat capacity at constant pressure [J/K/mol]
617.82 K, Crystal 2	86.15
618.82 K, Crystal 2	86.13
619.82 K, Crystal 2	86.1
620.82 K, Crystal 2	86.08
621.82 K, Crystal 2	86.05
622.82 K, Crystal 2	86.03
623.82 K, Crystal 2	86.01
624.82 K, Crystal 2	85.99
625.82 K, Crystal 2	85.96
626.82 K, Crystal 2	85.94
627.82 K, Crystal 2	85.92
628.82 K, Crystal 2	85.9
629.82 K, Crystal 2	85.88
630.82 K, Crystal 2	85.86
631.82 K, Crystal 2	85.84
632.82 K, Crystal 2	85.82
633.82 K, Crystal 2	85.8
634.82 K, Crystal 2	85.78
635.82 K, Crystal 2	85.76
636.82 K, Crystal 2	85.74
637.82 K, Crystal 2	85.73
638.82 K, Crystal 2	85.71
639.82 K, Crystal 2	85.7
640.82 K, Crystal 2	85.7
641.82 K, Crystal 2	85.69
642.82 K, Crystal 2	85.67
643.82 K, Crystal 2	85.66
644.82 K, Crystal 2	85.65
645.82 K, Crystal 2	85.64
646.82 K, Crystal 2	85.62
647.82 K, Crystal 2	85.62
648.82 K, Crystal 2	85.61
649.82 K, Crystal 2	85.6
650.82 K, Crystal 2	85.59
651.82 K, Crystal 2	85.57
652.82 K, Crystal 2	85.57
653.82 K, Crystal 2	85.57
654.82 K, Crystal 2	85.57
655.82 K, Crystal 2	85.56
656.82 K, Crystal 2	85.56
657.82 K, Crystal 2	85.56
658.82 K, Crystal 2	85.56
659.82 K, Crystal 2	85.57
660.82 K, Crystal 2	85.56
661.82 K, Crystal 2	85.56
662.82 K, Crystal 2	85.57
663.82 K, Crystal 2	85.57
664.82 K, Crystal 2	85.57
665.82 K, Crystal 2	85.57
666.82 K, Crystal 2	85.57
667.82 K, Crystal 2	85.57
668.82 K, Crystal 2	85.57
669.82 K, Crystal 2	85.58
670.82 K, Crystal 2	85.59
671.82 K, Crystal 2	85.6
672.82 K, Crystal 2	85.61
673.82 K, Crystal 2	85.62
674.82 K, Crystal 2	85.63
675.82 K, Crystal 2	85.64
676.82 K, Crystal 2	85.66
677.82 K, Crystal 2	85.67
678.82 K, Crystal 2	85.69
679.82 K, Crystal 2	85.7
680.82 K, Crystal 2	85.72
681.82 K, Crystal 2	85.74
682.82 K, Crystal 2	85.75
683.82 K, Crystal 2	85.77
684.82 K, Crystal 2	85.79
685.82 K, Crystal 2	85.81
686.82 K, Crystal 2	85.83
687.82 K, Crystal 2	85.85
688.82 K, Crystal 2	85.87
689.82 K, Crystal 2	85.89
690.82 K, Crystal 2	85.92
691.82 K, Crystal 2	85.94
692.82 K, Crystal 2	85.96
693.82 K, Crystal 2	85.99
694.82 K, Crystal 2	86.01
695.82 K, Crystal 2	86.04
696.82 K, Crystal 2	86.06
697.82 K, Crystal 2	86.09
698.82 K, Crystal 2	86.12
699.82 K, Crystal 2	86.14
700.82 K, Crystal 2	86.04
701.82 K, Crystal 2	86.05
702.82 K, Crystal 2	86.06
703.82 K, Crystal 2	86.07
704.82 K, Crystal 2	86.08
705.82 K, Crystal 2	86.09
706.82 K, Crystal 2	86.1
707.82 K, Crystal 2	86.11
708.82 K, Crystal 2	86.12
709.82 K, Crystal 2	86.13
710.82 K, Crystal 2	86.14
711.82 K, Crystal 2	86.15
712.82 K, Crystal 2	86.16
713.82 K, Crystal 2	86.17
714.82 K, Crystal 2	86.18
715.82 K, Crystal 2	86.19
716.82 K, Crystal 2	86.2
717.82 K, Crystal 2	86.21
718.82 K, Crystal 2	86.22
719.82 K, Crystal 2	86.23
720.82 K, Crystal 2	86.24
721.82 K, Crystal 2	86.25
722.82 K, Crystal 2	86.26
723.82 K, Crystal 2	86.26
724.82 K, Crystal 2	86.27
725.82 K, Crystal 2	86.28
726.82 K, Crystal 2	86.29
727.82 K, Crystal 2	86.3
728.82 K, Crystal 2	86.3
729.82 K, Crystal 2	86.31
730.82 K, Crystal 2	86.32
731.82 K, Crystal 2	86.32
732.82 K, Crystal 2	86.33
733.82 K, Crystal 2	86.33
734.82 K, Crystal 2	86.34
735.82 K, Crystal 2	86.34
736.82 K, Crystal 2	86.35
737.82 K, Crystal 2	86.35
738.82 K, Crystal 2	86.35
739.82 K, Crystal 2	86.35
740.82 K, Crystal 2	86.36
741.82 K, Crystal 2	86.36
742.82 K, Crystal 2	86.36
743.82 K, Crystal 2	86.36
744.82 K, Crystal 2	86.36
745.82 K, Crystal 2	86.36
746.82 K, Crystal 2	86.35
747.82 K, Crystal 2	86.35
748.82 K, Crystal 2	86.35
749.82 K, Crystal 2	86.35
750.82 K, Crystal 2	86.34
751.82 K, Crystal 2	86.34
752.82 K, Crystal 2	86.33
753.82 K, Crystal 2	86.33
754.82 K, Crystal 2	86.32
755.82 K, Crystal 2	86.31
756.82 K, Crystal 2	86.31
757.82 K, Crystal 2	86.3
758.82 K, Crystal 2	86.29
759.82 K, Crystal 2	86.28
760.82 K, Crystal 2	86.27
761.82 K, Crystal 2	86.27
762.82 K, Crystal 2	86.26
763.82 K, Crystal 2	86.25
764.82 K, Crystal 2	86.24
765.82 K, Crystal 2	86.23
766.82 K, Crystal 2	86.21
767.82 K, Crystal 2	86.2
768.82 K, Crystal 2	86.19
769.82 K, Crystal 2	86.18
770.82 K, Crystal 2	86.17
771.82 K, Crystal 2	86.16
772.82 K, Crystal 2	86.14
773.82 K, Crystal 2	86.13
774.82 K, Crystal 2	86.12
775.82 K, Crystal 2	86.11
776.82 K, Crystal 2	86.1
777.82 K, Crystal 2	86.08
778.82 K, Crystal 2	86.07
779.82 K, Crystal 2	86.06
780.82 K, Crystal 2	86.05
781.82 K, Crystal 2	86.04
782.82 K, Crystal 2	86.02
783.82 K, Crystal 2	86.01
784.82 K, Crystal 2	86
785.82 K, Crystal 2	85.99
786.82 K, Crystal 2	85.98
787.82 K, Crystal 2	85.97
788.82 K, Crystal 2	85.96
789.82 K, Crystal 2	85.95
790.82 K, Crystal 2	85.95
791.82 K, Crystal 2	85.94
792.82 K, Crystal 2	85.93
793.82 K, Crystal 2	85.93
794.82 K, Crystal 2	85.92
795.82 K, Crystal 2	85.92
796.82 K, Crystal 2	85.91
797.82 K, Crystal 2	85.91
798.82 K, Crystal 2	85.91
799.82 K, Crystal 2	85.9
800.82 K, Crystal 2	85.91
801.82 K, Crystal 2	85.92
802.82 K, Crystal 2	85.93
803.82 K, Crystal 2	85.94
804.82 K, Crystal 2	85.95
805.82 K, Crystal 2	85.96
806.82 K, Crystal 2	85.97
807.82 K, Crystal 2	85.98
808.82 K, Crystal 2	85.99
809.82 K, Crystal 2	86
810.82 K, Crystal 2	86.01
811.82 K, Crystal 2	86.02
812.82 K, Crystal 2	86.03
813.82 K, Crystal 2	86.04
814.82 K, Crystal 2	86.05
815.82 K, Crystal 2	86.06
816.82 K, Crystal 2	86.07
817.82 K, Crystal 2	86.08
818.82 K, Crystal 2	86.09
819.82 K, Crystal 2	86.1
820.82 K, Crystal 2	86.11
821.82 K, Crystal 2	86.12
822.82 K, Crystal 2	86.13
823.82 K, Crystal 2	86.14
824.82 K, Crystal 2	86.15
825.82 K, Crystal 2	86.16
826.82 K, Crystal 2	86.17
827.82 K, Crystal 2	86.18
828.82 K, Crystal 2	86.19
829.82 K, Crystal 2	86.2
830.82 K, Crystal 2	86.21
831.82 K, Crystal 2	86.23
832.82 K, Crystal 2	86.24
833.82 K, Crystal 2	86.25
834.82 K, Crystal 2	86.26
835.82 K, Crystal 2	86.27
836.82 K, Crystal 2	86.28
837.82 K, Crystal 2	86.29
838.82 K, Crystal 2	86.3
839.82 K, Crystal 2	86.31
840.82 K, Crystal 2	86.32
841.82 K, Crystal 2	86.33
842.82 K, Crystal 2	86.34
843.82 K, Crystal 2	86.35
844.82 K, Crystal 2	86.36
845.82 K, Crystal 2	86.37
846.82 K, Crystal 2	86.38
847.82 K, Crystal 2	86.39
848.82 K, Crystal 2	86.4
849.82 K, Crystal 2	86.41
866.21 K, Crystal 1	90.42
867.21 K, Crystal 1	88.01
868.11 K, Crystal 1	89.24
869.11 K, Crystal 1	88.03
870.11 K, Crystal 1	87.13
871.11 K, Crystal 1	86.12
872.11 K, Crystal 1	85.33
873.11 K, Crystal 1	85.06
874.11 K, Crystal 1	84.83
875.11 K, Crystal 1	84.62
876.11 K, Crystal 1	84.44
877.11 K, Crystal 1	84.28
878.11 K, Crystal 1	84.13
879.11 K, Crystal 1	83.93
880.11 K, Crystal 1	83.85
881.11 K, Crystal 1	83.77
882.11 K, Crystal 1	83.69
883.11 K, Crystal 1	83.62
884.11 K, Crystal 1	83.55
885.11 K, Crystal 1	83.48
886.11 K, Crystal 1	83.41
887.11 K, Crystal 1	83.34
888.11 K, Crystal 1	83.28
889.11 K, Crystal 1	83.22
890.11 K, Crystal 1	83.17
891.11 K, Crystal 1	83.11
892.11 K, Crystal 1	83.06
893.11 K, Crystal 1	83.01
894.11 K, Crystal 1	82.97
895.11 K, Crystal 1	82.92
896.11 K, Crystal 1	82.88
897.11 K, Crystal 1	82.85
898.11 K, Crystal 1	82.81
899.11 K, Crystal 1	82.78
900.11 K, Crystal 1	82.75
901.11 K, Crystal 1	82.69
902.11 K, Crystal 1	82.64
903.11 K, Crystal 1	82.59
904.11 K, Crystal 1	82.54
905.11 K, Crystal 1	82.49
906.11 K, Crystal 1	82.45
907.11 K, Crystal 1	82.41
908.11 K, Crystal 1	82.37
909.11 K, Crystal 1	82.34
910.11 K, Crystal 1	82.3
911.11 K, Crystal 1	82.27
912.11 K, Crystal 1	82.25
913.11 K, Crystal 1	82.22
914.11 K, Crystal 1	82.2
915.11 K, Crystal 1	82.18
916.11 K, Crystal 1	82.16
917.11 K, Crystal 1	82.15
918.11 K, Crystal 1	82.14
919.11 K, Crystal 1	82.13
920.11 K, Crystal 1	82.13
921.11 K, Crystal 1	82.12
922.11 K, Crystal 1	82.12
923.11 K, Crystal 1	82.12
924.11 K, Crystal 1	82.13
925.11 K, Crystal 1	82.14
926.11 K, Crystal 1	82.15
927.11 K, Crystal 1	82.16
928.11 K, Crystal 1	82.18
929.11 K, Crystal 1	82.2
930.11 K, Crystal 1	82.22
931.11 K, Crystal 1	82.23
932.11 K, Crystal 1	82.25
933.11 K, Crystal 1	82.26
934.11 K, Crystal 1	82.27
935.11 K, Crystal 1	82.29
936.11 K, Crystal 1	82.3
937.11 K, Crystal 1	82.31
938.11 K, Crystal 1	82.32
